Measured values: publication PMC12146557 (iScience, 2025)

Legend:
[1] = target: T1, PfUbc13 (Plasmodium falciparum ubiquitin-conjugating enzyme 13) (Plasmodium falciparum, UniProt Q8I3J4); assay: LC-HRMS of tryptic peptides; assay type: biochemical
T1 sequence (Q8I3J4 1-152): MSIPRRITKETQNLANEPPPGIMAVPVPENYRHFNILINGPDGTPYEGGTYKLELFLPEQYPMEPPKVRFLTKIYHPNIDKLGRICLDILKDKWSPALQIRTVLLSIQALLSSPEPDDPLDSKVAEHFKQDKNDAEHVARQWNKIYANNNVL
T1 sequence (Q8I5F9 1-1140 partner): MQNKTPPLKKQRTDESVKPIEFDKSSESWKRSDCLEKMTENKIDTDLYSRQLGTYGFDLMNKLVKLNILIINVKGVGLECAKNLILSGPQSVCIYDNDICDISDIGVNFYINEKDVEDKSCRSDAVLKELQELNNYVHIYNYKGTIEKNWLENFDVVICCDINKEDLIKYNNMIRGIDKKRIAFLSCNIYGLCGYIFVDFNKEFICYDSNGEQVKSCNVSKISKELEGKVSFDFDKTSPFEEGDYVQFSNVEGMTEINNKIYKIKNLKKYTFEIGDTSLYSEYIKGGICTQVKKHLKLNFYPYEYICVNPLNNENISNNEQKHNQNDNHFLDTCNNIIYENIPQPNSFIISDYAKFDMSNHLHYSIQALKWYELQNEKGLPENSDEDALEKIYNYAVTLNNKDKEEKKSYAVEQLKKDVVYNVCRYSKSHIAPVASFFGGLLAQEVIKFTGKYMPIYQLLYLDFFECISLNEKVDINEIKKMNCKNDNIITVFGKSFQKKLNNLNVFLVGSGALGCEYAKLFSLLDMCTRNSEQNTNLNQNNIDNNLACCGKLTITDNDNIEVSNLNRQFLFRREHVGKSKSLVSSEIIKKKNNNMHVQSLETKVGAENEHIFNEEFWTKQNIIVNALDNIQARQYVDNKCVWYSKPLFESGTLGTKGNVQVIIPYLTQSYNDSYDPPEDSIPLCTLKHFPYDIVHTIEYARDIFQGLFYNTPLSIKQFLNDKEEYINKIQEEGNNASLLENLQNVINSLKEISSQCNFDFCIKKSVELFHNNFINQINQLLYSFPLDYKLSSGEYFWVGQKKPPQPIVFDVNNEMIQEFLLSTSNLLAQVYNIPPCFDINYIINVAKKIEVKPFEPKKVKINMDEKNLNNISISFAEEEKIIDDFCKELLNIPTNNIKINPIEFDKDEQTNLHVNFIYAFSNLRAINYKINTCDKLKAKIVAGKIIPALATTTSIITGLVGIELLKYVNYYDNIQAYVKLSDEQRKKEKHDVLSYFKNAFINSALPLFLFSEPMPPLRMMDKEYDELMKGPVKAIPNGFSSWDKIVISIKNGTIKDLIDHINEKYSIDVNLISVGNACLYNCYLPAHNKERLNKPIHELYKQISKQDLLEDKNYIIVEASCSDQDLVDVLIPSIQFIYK

HsUbc13 (human Ubc13) = target: T2, HsUbc13 (human Ubc13) (Homo sapiens, UniProt P61088); assay: LC-HRMS of tryptic peptides; assay type: biochemical
T2 sequence (P61088 1-152): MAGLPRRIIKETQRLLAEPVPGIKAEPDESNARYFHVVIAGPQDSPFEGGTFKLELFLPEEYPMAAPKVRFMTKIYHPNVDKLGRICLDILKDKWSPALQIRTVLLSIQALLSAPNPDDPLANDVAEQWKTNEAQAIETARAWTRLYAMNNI

Cc1ccc(S(=O)(=O)c2ccc([N+](=O)[O-])o2)cc1 [NSC697923]
Ki [1]: 360 ± 110 nM | Ki (HsUbc13 (human Ubc13)): 280 ± 70 nM
